Data published in patent publication US20260048052A1, “METHODS OF TREATING TENOSYNOVIAL GIANT CELL TUMORS” (Deciphera Pharmaceuticals, LLC, priority 2023, published 2026).
“And” between values parts separate entries of the source, which are not always exact repeats. Equal entries are not always repeated.

How the values were obtained:
[1] = test system: patients with TGCT not amenable to surgery; experiment: Phase 3, randomized, placebo-controlled, double-blind study of vimseltinib in patients with TGCT: efficacy; format: in vivo, human
Experimental: This study is a two-part, randomized, double-blind, placebo-controlled study to assess the efficacy and safety of vimseltinib in patients with TGCT not amenable to surgery with no prior anti-CSF1/CSF1R therapy (prior therapy with imatinib or nilotinib allowed). In Part 1, patients (n=123) were randomized two-to-one to receive either 30 mg twice weekly of vimseltinib (n=83) or placebo (n=40) for 24 weeks. Vimseltinib or matching placebo was administered orally each week on day 1 and day 5 (±1 day) at approximately the same time of day on an empty stomach, with ≥24 hours between doses. An MRI of the affected joint was performed at screening, cycle 4 day 1 (week 13; ±7 days), and at the end of Part 1. Part 2 is an ongoing open-label study, in which patients from both the vimseltinib and placebo arms receive treatment with vimseltinib.
The primary endpoint of the study is the objective response rate (ORR) at Week 25 as measured by Response Evaluation Criteria in Solid Tumors (RECIST) version 1.1 by blinded independent radiologic review (IRR). Key secondary endpoints included the objective response rate at Week 25 by IRR per tumor volume score (TVS), active range of motion (ROM) at Week 25, PROMIS physical function (PROMIS-PF) score, worst stiffness numeric rating scale (NRS) score at Week 25, EQ-visual analogue scale (EQ-VAS) score at Week 25, and greater than or equal to 30% reduction in Brief Pain Inventory (BPI) in worst pain and less than 30% increase in narcotic use (BPI-30) at Week 25. Other secondary endpoints included duration of response (DOR) and safety.
Eligibility Criteria: Eligible patients were aged ≥18 years with a histologically confirmed diagnosis of TGCT for which surgical resection would potentially cause worsening functional limitation or severe morbidity. Patients had at least 1 measurable lesion ≥2 cm using Response Evaluation Criteria in Solid Tumors version 1.1 (RECIST v1.1), as assessed from magnetic resonance imaging (MRI) by a central radiologist.
Patients were excluded for receiving previous systemic therapy targeting CSF1 or CSF1R including vimseltinib; previous therapy with imatinib and/or nilotinib was allowed. Patients who received any therapy for TGCT (including investigational therapy) during screening, had major surgery 14 days prior to the first dose of study drug, or participated in a non-TGCT investigational drug study within 30 days of screening were also excluded.
Tumor volume score (TVS) is a semiquantitative magnetic resonance imaging scoring system that describes tumor mass. It is based on 10% increments of the estimated volume of the maximally distended involved synovial cavity or tendon sheath. Scores ranged from 0 to 10, and a tumor that was equal in volume to that of a maximally distended synovial cavity or tendon sheath was scored a 10; a score of 0 indicated no evidence of a tumor.
Complete response denoted disappearance of all tumor(s). Partial response was at least a 50% reduction from baseline in TVS. Progressive disease was at least a 30% increase in TVS from baseline. Stable disease was neither a sufficient decrease to qualify for partial response nor sufficient increase to qualify for progressive disease, taking the nadir as a reference. Response was considered not evaluable if the TVS could not be assessed for reasons such as inadequate or missing imaging.
Active range of motion (ROM; in degrees) was assessed using a goniometer and was normalized using a reference standard provided by the American Medical Association to compute the relative active ROM. In joints where more than one motion was measured, the motion with the smallest relative ROM value (worst) was used for evaluating subsequent changes in relative active ROM.
Response for PROMIS-PF, worst stiffness NRS, and EQ-VAS was a change from baseline ≥3, ≤−2, and ≥7, respectively. BPI worst pain response was defined as a ≥30% reduction in worst pain without a ≥30% increase in narcotic analgesic use. […]

patients with TGCT = settings: human, in vivo
Experimental: The safety population includes patients who received at least 1 dose of study drug. Severity was assessed by the investigator according to the toxicity grade described in the National Cancer Institute CTCAE v4.03 (grade 1 [mild] to grade 5 [death]). Time denotes the earliest start date of the worst grade for each TEAE; if the highest grade TEAE occurred in the first 12 months of treatment, lower grade events that occurred after 12 months were not captured in this figure. Key: AST, aspartate aminotransferase; COVID-19, coronavirus disease 2019; CPK, creatine phosphokinase; CTCAE v4.03, Common Terminology Criteria for Adverse Events version 4.03; LDH, lactate dehydrogenase; TEAE, treatment-emergent adverse event.
This is a Phase 1/2 open-label, multicenter study evaluating the safety and efficacy of vimseltinib in patients with TGCT. In Phase 1, 32 patients enrolled in three cohorts across multiple doses. In Phase 2, 66 patients enrolled in two cohorts at the recommended Phase 2 dose of 30 mg twice weekly: Cohort A (n=46) in TGCT patients with no prior anti-CSF1/CSF1R therapy (prior therapy with imatinib or nilotinib allowed); and Cohort B (n=20) in TGCT patients with prior anti-CSF1/CSF1R therapy (prior therapy with imatinib or nilotinib alone not eligible).

[2] = 30 mg twice weekly, ITT N=83, Week 25
[3] = 30 mg twice weekly, ITT, Week 25

Cc1nc(-c2cnc(NC(C)C)n(C)c2=O)ccc1Oc1ccnc(-c2cnn(C)c2)c1 [Vimseltinib, 2-(isopropylamino)-3-methyl-5-(6-methyl-5-((2-(1-methyl-IH-pyrazol-4-yl)pyridin-4-yl)oxy)pyridin-2-yl)pyrimidin-4(3H)-one]
clinical benefit (CR+PR+SD), best percentage change in target lesions by IRR ([1]; 30 mg twice weekly, FIG. 7A): Nearly all patients receiving vimseltinib experienced clinical benefit
BPI-30 Response in Worst Pain [1, 2]: 40 (48) n (%)
CFB in EQ-VAS at Week 25, LS Mean [1, 2]: 13.5
CFB in Worst Stiffness NRS at Week 25, LS Mean [1, 2]: −2.1
CR by IRR per TVS [1, 2]: 4 (5%) n (%)
Complete Response (CR) by IRR per RECIST 1.1 [1, 2]: 4 (5%) n (%)
ORR at Week 25 by IRR per RECIST 1.1 [1, 2]: 33 (40%) n (%)
ORR at Week 25 by IRR per RECIST v1.1 [1, 2]: 40%
PR by IRR per TVS [1, 2]: 52 (63%) n (%)
Partial Response (PR) by IRR per RECIST 1.1 [1, 2]: 29 (35%) n (%)
Stable disease (SD) by IRR per RECIST 1.1 [1, 2]: 42 (51%) n (%)
CFB in EQ-VAS at Week 25, Difference in LS Mean vs placebo [1, 3]: 7.4
CFB in Worst Stiffness NRS at Week 25, Difference in LS Mean vs placebo [1, 3]: −1.8
Difference in BPI-30 Response in Worst Pain vs placebo (95% CI) [1, 3]: 26% and 26 (4, 42) %
Difference in ORR (vimseltinib vs placebo) by IRR per TVS [1, 3]: 67%
Difference in ORR (vimseltinib vs. placebo) by IRR per RECIST 1.1 [1, 3]: 40%
response rate in active ROM at Week 25 ([1]; 30 mg twice weekly, N=79): 48%
response rate in PROMIS-PF at Week 25 ([1]; 30 mg twice weekly, N=79, response = change from baseline ≥3): 43%
response rate in EQ-VAS at Week 25 ([1]; 30 mg twice weekly, N=79, response = change from baseline ≥7): 37%
difference in response rate in EQ-VAS vs placebo ([1]; 30 mg twice weekly, Week 25): 12%
difference in response rate in PROMIS-PF vs placebo ([1]; 30 mg twice weekly, Week 25): 18%
difference in response rate in Worst Stiffness NRS vs placebo ([1]; 30 mg twice weekly, Week 25): 24%
difference in response rate in active ROM vs placebo ([1]; 30 mg twice weekly, Week 25): 28%
median duration of response by IRR per RECIST v1.1 ([1]; 30 mg twice weekly, responders): not reached
median duration of response by IRR per TVS ([1]; 30 mg twice weekly, responders): not reached
response rate in Worst Stiffness NRS at Week 25 ([1]; 30 mg twice weekly, response = change from baseline ≤−2): 39%
BPI-30 response rate in Worst Pain at Week 25 ([1]; 30 mg twice weekly, ≥30% reduction in BPI worst pain NRS and <30% increase in narcotic use): 48%
functional and symptomatic improvement across active ROM, PROMIS-PF, worst stiffness NRS, BPI worst pain ([1]; Week 25, versus placebo, FIG. 8): More patients experienced improvement in multiple measures
tumor responses, updated results ([1]; after 6 months): sustained tumor responses
Grade 3/4 TEAE eczema (patients with TGCT): 10%
Grade 3/4 TEAE increased blood CPK (patients with TGCT): 35%
Grade 3/4 TEAE increased blood creatine phosphokinase (CPK) (patients with TGCT): 48%
grade of the majority of TEAEs (patients with TGCT): grade 1 or 2
onset of the majority of the most severe events (patients with TGCT): ≤ 12 months
tolerability (patients with TGCT): well-tolerated
tolerability, longer follow-up (patients with TGCT): continued to be well tolerated with a manageable safety profile
treatment discontinuation due to TEAEs (patients with TGCT): 9%
